{
  "source": "patent US4060603A",
  "about": "“Histidine derivatives” (Reckitt & Colman Products Limited, priority 1975, dated 1977)",
  "tested_on": "reserpine induced hypothermia",
  "assay": "reversal of reserpine induced hypothermia test in mice",
  "assay_type": "in vivo",
  "data": [
    {"compound": "C[C@H]1CCN(C(=O)[C@H](Cc2c[nH]cn2)NC(=O)[C@@H]2CCC(=O)N2)[C@@H]1C(N)=O", "note": "[Example 1, L-Pyroglutamyl-L-histidyl-trans-3-methyl-L-prolineamide]", "values": [
      {"measurement": "calorigenic effect in reversal of reserpine induced hypothermia", "setting": "fully reserpinised mice, over 4 hours, P < 0.05, Mann Whitney U test", "value": "significant"},
      {"measurement": "potency relative to TRH (times more potent)", "setting": "mice, doses 1-30 mg/Kg p.o.", "value": "3-4 time"}
    ]}
  ]
}
